Data published in patent US20260109721A1, “IONIZABLE CATIONIC LIPIDS INCORPORATING SILICON: SYNTHESIS AND LNP FORMULATION” (priority 2023, published 2026).

Tests used:
HepG2 cell line = experiment: In vitro toxicity study on HepG2 cell line (resazurin, viability and IC50); assay type: cell-based, human; conditions: resazurin; for Viability (%) at different lipid concentrations, mean: HepG2 cells, 48 h post-treatment, relative to ethanol vehicle controls; for IC50: Homo sapiens, lipid toxicity, HepG2, 48 h post-treatment, 6.25-800 μM, read-out: IC50 value, μM (on HepG2 cell)
Description: (§1) The synthesized lipids were tested in term of in vitro transfection efficacy and toxicity on HeLa cells. In order to perform the mentioned biological tests, appropriate LNPs had to be formulated from the synthesized lipids. The formulation technique was different in Method A and B. The particle size, polydispersity index (PDI) and zeta potential of resulting LNPs were determined by means of Dynamic Light Scattering technique (DLS). Prior to biological testing the encapsulation efficiency (EE) of the loaded LNPs was determined by using RiboGreen RNA assay. In case of Method A Luc mRNA while in case of Method B GFP mRNA was transfected into the cells. In parallel with the transfection experiments, toxicity of the investigated LNPs was determined, in case of Method A resazurin assay while in case of Method B MTT assay was used. Additionally, the toxicity of the lipids was investigated on HepG2 cells and IC50 values were determined.
HepG2 cell line (human hepatocellular carcinoma) were maintained in DMEM medium supplemented with 10% FBS. Cell toxicity measurements were carried out in 384-well microtiter plates with 1000 cells seeded in each well. Test measurements were carried out in triplicate, and control measurements in quadruplicate. After an overnight incubation, the cells were treated with an increasing concentration of the test compounds (6.25, 12.5, 25, 50, 100, 200, 400, 800 μM). […] 48 h post-treatment, following visual inspection under an inverted microscope, cell viability was measured by resazurin assay. Viability of treated cells was calculated relative to that of ethanol vehicle controls. Concentration response curves (CRCs) were obtained and corresponding IC50 values were calculated where applicable and are shown in Table 9.
Resazurin reagent (Sigma-Aldrich) was dissolved in PBS (pH 7.4) at 0.15 mg/ml concentration, 0.22 μm filtered and aliquoted at −20° C., 10 μl resazurin stock solution was added to wells. After 5 hours incubation at 37° C. under 5% CO2 fluorescence (530 nm excitation/580 nm emission) was recorded on a multimode microplate reader.

HeLa cells [1] = experiment: Transfection efficiency with Luciferase (SecNLuc) mRNA, Nano-Glo assay (Method A); assay type: cell-based; conditions: Luc mRNA, 24 h, luminescence; for Transfection 10 ng mRNA: 10 ng mRNA/well; for Transfection 50 ng mRNA: 50 ng mRNA/well; for Transfection 100 ng mRNA: 100 ng mRNA/well
Description: as §1
• 1. Prepare mRNA solution by adding 100 ng mRNA (SecNLuc, #P009024, RiboPro) to 5 μl Opti-MEM • multiply by number of wells, include different concentrations and add 10% extra • a standard set-up we use is 100 ng-50 ng-10 ng mRNA/well in triplicate, which would need […] mRNA (includes 10% extra)
• 2. (If applicable) Prepare different concentrations in Opti-MEM (for instance 100/50/10 ng). • 3. Add 10 μl to each well and mix carefully by pipetting. • 4. Mix by swirling the plate horizontally at modest speed. Reverse in direction 3 times. • 5. Incubate for 24 hours (incubator).
This protocol is applied to measure luciferase activity for secreted NanoLuc and is based on the protocol by Promega (Nano-Glo® Luciferase Assay System #N1110-1150). The protocol is designed for a 384-wells plate, but volumes can be changed accordingly for other plates.
• 1. Plate cells (HeLa) in 96-well plate, grow until 80% confluent and transfect with SecNanoLuc mRNA and incubate for the desired period (24 h). • 2. After incubation, the translated protein is accumulated in the medium. Transfer medium to a new plate or tubes. • 3. Transfer 12 μl of each sample to a black-walled, clear-bottom 384-well plate • Black-walled plates are important to prevent shine-through of luminescence from other wells; alternatively, multiple wells between samples can be left empty. • 4. Set-up plate reader • 5. Prepare the desired amount of Nano-Glo® Luciferase Assay Reagent by combining one volume of Nano-Glo® Luciferase Assay Substrate with 50 volumes of Nano-Glo® Luciferase Assay Buffer: • a. composition: 100 mM MES pH 6; 1 mM EDTA; […]; 150 mM KCl; 1 mM DTT; 35 mM Thiourea; • b. briefly spin tubes containing substrate in a microcentrifuge before use. • 6. Add and mix (by pipetting) 12 μl Nano-Glo® Luciferase Assay Reagent per well • Wait approximately 3 minutes before measuring luminescence. […] Measure luminescence in plate reader using standard protocol luciferase (this includes mixing sample in plate reader)

HeLa cells [2] = experiment: Cell viability assessment with resazurin assay (Method A); assay type: cell-based; conditions: human
Description: as §1
This protocol is used to determine the metabolic activity of cells as a measure for cell viability after exposure to potentially toxic substances. Resazurin is converted in mitochondria by reduction to resorufin, which has a much higher fluorescence at ˜600 nm compared to unconverted resazurin. A lower amount/percentage of conversion is correlated with reduced cellular metabolism and indirectly to cellular death and toxicity. Care must be taken with interpretation of the read-out, as 50% reduction in resazurin conversion may mean 50% reduction of cellular metabolism of 100% alive cells, or 50% of cells dead, and any combination in between.
• 1. Prepare 0.25 mg/ml stock solution resazurin in fresh cell culture medium. Resazurin is auto-reducing over time in solution, especially in medium, and fresh stocks should be prepared every 2-3 days. Stocks should be stored at 4° C. and protected from light. For HeLa cells, DMEM/F12 with 10% FCS is used. • 2. Dilute stock solution 10× in fresh cell culture medium to 0.025 mg/ml->ready for application on cells. For HeLa cells, DMEM/F12 with 10% FCS is used. • 3. Collect 96-well plate and replace cell-culture spent medium with 100 μl per well resazurin solution. Add some resazurin solution for background measurement in wells not containing cells. • 4. Incubate for 50 minutes in incubator at 37° C., 5% CO2, 95% RH. • 5. Transfer resazurin solution to a fresh 96- or 384-well plate. • 6. Measure in plate reader using 540/25 nm (excitation) and 610/40 nm (emission) using standard settings (PTM low/OD-1.0). • 7. Subtract the average background measurement from all samples. Set the average of the negative controls (well receiving OptiMEM only during transfection) to 100% and express all values as percentage of the control activity. Typically, at lower levels of treatment, elevation of metabolic activity is shown, whereas for toxic substances, at toxic concentrations sigmoidal curves can be obtained, with lower activity indicating higher toxicity.

Structure (SMILES) | Viability (%) at different lipid concentrations, mean (HepG2 cell line; 6.25 μM lipid) | Viability (%) at different lipid concentrations, mean (HepG2 cell line; 12.5 μM lipid) | Viability (%) at different lipid concentrations, mean (HepG2 cell line; 25 μM lipid) | Viability (%) at different lipid concentrations, mean (HepG2 cell line; 50 μM lipid) | Viability (%) at different lipid concentrations, mean (HepG2 cell line; 100 μM lipid) | Viability (%) at different lipid concentrations, mean (HepG2 cell line; 200 μM lipid) | Viability (%) at different lipid concentrations, mean (HepG2 cell line; 400 μM lipid) | Viability (%) at different lipid concentrations, mean (HepG2 cell line; 800 μM lipid) | IC50 (HepG2 cell line) | Transfection 10 ng mRNA (HeLa cells [1]) | Transfection 50 ng mRNA (HeLa cells [1]) | Transfection 100 ng mRNA (HeLa cells [1]) | Cell Viability % (Average metabolic rate over all doses, Resazurin) (HeLa cells [2])
CCCCCCCC/C=C\CCCCCCCCOC(CCCCCCCCCCCCCCC)O[Si](C)(C)OCCCCCCN(CCO)CCO (centres unmarked) [Example 41, (Z)-3-(2-hydroxyethyl)-11,11-dimethyl-13-pentadecyl-10,12,14-trioxa-3-aza-11-siladotriacont-23-en-1-ol] | 99.0% | 97.6% | 102.6% | 111.2% | 113.2% | 109.5% | 91.5% | 90.7% | > 800 µM | 3.11E+05 | 3.64E+06 | 1.03E+07 | 98%
CCCCCCCC/C=C\CCCCCCCC(OCCCCCCCCCCCCCCCC)O[Si](C)(C)OCCCCCCN(CCO)CCO (centres unmarked) [Example 42, (Z)-13-(heptadec-8-en-1-yl)-3-(2-hydroxyethyl)-11,11-dimethyl-10,12,14-trioxa-3-aza-11-silatriacontan-1-ol] | 105.1% | 100.0% | 98.9% | 102.2% | 107.6% | 117.1% | 104.2% | 99.8% | > 800 µM | 6.16E+04 | 1.32E+06 | 5.53E+06 | 98%
CCCCC/C=C\C/C=C\CCCCCCCCOC(CCCCCCCCCCCCCCC)O[Si](C)(C)OCCCCCCN(CCO)CCO (centres unmarked) [Example 43, (23Z,26Z)-3-(2-hydroxyethyl)-11,11-dimethyl-13-pentadecyl-10,12,14-trioxa-3-aza-11-siladotriaconta-23,26-dien-1-ol] | 100.9% | 98.7% | 102.2% | 111.9% | 114.9% | 108.9% | 92.1% | 89.8% | > 800 µM | 4.81E+05 | 5.50E+06 | 1.32E+07 | 98%
CCCCC/C=C\C/C=C\CCCCCCCC(OCCCCCCCCCCCCCCCC)O[Si](C)(C)OCCCCCCN(CCO)CCO (centres unmarked) [Example 44, 13-((8Z,11Z)-heptadeca-8,11-dien-1-yl)-3-(2-hydroxyethyl)-11,11-dimethyl-10,12,14-trioxa-3-aza-11-silatriacontan-1-ol] | 100.8% | 98.5% | 106.8% | 112.7% | 122.0% | 118.8% | 103.0% | 94.0% | > 800 µM | 1.57E+05 | 2.08E+06 | 7.09E+06 | 94%
CCCCC/C=C\C/C=C\CCCCCCCC(OCCCCCCCC/C=C\CCCCCCCC)O[Si](C)(C)OCCCCCCN(CCO)CCO (centres unmarked) [Example 45, (Z)-13-((8Z,11Z)-heptadeca-8,11-dien-1-yl)-3-(2-hydroxyethyl)-11,11-dimethyl-10,12,14-trioxa-3-aza-11-siladotriacont-23-en-1-ol] | 105.6% | 99.4% | 100.4% | 106.0% | 109.5% | 107.1% | 64.9% | 1.1% | 421 µM | 1.80E+05 | 2.42E+06 | 7.94E+06 | 96%
